This note sets out measurements from patent US10294234B2, “HIV inhibitor compounds” (priority 2017, dated 2019).

A word on the EC50: it is the concentration needed to bring the measured effect to its halfway point.

Each structure is given as a SMILES string. Where two headings read alike, the source gives them in different places.

Data set [1] concerns HIV-1 (IIIB) in MT-4 cells. Nature of the data set: MT-4 HIV assay. The format is cell-based. The conditions noted are these: Human immunodeficiency virus 1, MT4, 120 h. A digest of the protocol:
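MT-4 cells infected with HIV-1 IIIB (1:250 stock dilution) were incubated with 1:3 serially diluted compounds in RPMI with 10% FBS for 5 days at 37 °C. Cell Titer Glo luminescence was the readout. Plates included mock-infected wells, no-drug wells and 5 uM AZT controls.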

A summary of the method of data set [2]: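 Compounds at 1 uM were incubated in duplicate with dog, rat or human liver microsomes (0.5 mg/mL protein) and an NADPH-regenerating system, sampled at 2, 12, 25, 45 and 65 minutes. Remaining parent was measured by LC/MS/MS, and Clint was calculated from the in vitro t1/2.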
Setting [3] is: HIV-1 (IIIB), MT-4 cells, 5 days, Cell Titer Glo, read-out: EC50.
Where [4] appears, read: human liver microsomes 0.5 mg/mL, 1 uM compound, NADPH.
[5] abbreviates: rat liver microsomes 0.5 mg/mL, 1 uM compound, NADPH.

Regarding `COC(=O)N[C@H](C(=O)N[C@@H](Cc1ccc(-c2cnc(N3CC4CCC(C3)N4C3COC3)nc2)cc1)[C@@H](O)CN(Cc1c(F)cc(-c2ccn(C3CC3)n2)cc1F)NC(=O)[C@@H](NC(=O)OC)C(C)(C)C(F)(F)F)C(C)(C)C(F)(F)F` [Example 198, methyl ((5S,8S,9S,14S)-11-(4-(1-cyclopropyl-1H-pyrazol-3-yl)-2,6-difluorobenzyl)-16,16,16-trifluoro-9-hydroxy-15,15-dimethyl-8-(4-(2-(8-(oxetan-3-yl)-3,8-diazabicyclo[3.2.1]octan-3-yl)pyrimidin-5-yl)benzyl)-3,6,13-trioxo-5-(1,1,1-trifluoro-2-methylpropan-2-yl)-2-oxa-4,7,11,12-tetraazahexadecan-14-yl)carbamate], the concentration for a half-maximal effect (EC50) in data set [1] (setting [3]) stood at 2.19 nM. The “Human Pred Cl.” value in data set [2] (human, microsomes) is recorded as less than 0.11 L/H/kg. In data set [2] (rat, microsomes), the “Rat. Pred. Cl.” value is recorded as 0.33 L/H/kg.
Consider `COC(=O)N[C@H](C(=O)N[C@@H](Cc1ccc(-c2ccc3nc(N4CC5CCC(C4)N5C4COC4)ccc3n2)cc1)[C@@H](O)CN(Cc1c(F)cc(-c2ccn(C(F)F)n2)cc1F)NC(=O)[C@@H](NC(=O)OC)C(C)(C)C(F)(F)F)C(C)(C)C(F)(F)F` [Example 200, Methyl ((5S,8S,9S,14S)-11-(4-(1-(difluoromethyl)-1H-pyrazol-3-yl)-2,6-difluorobenzyl)-16,16,16-trifluoro-9-hydroxy-15,15-dimethyl-8-(4-(6-(8-(oxetan-3-yl)-3,8-diazabicyclo[3.2.1]octan-3-yl)-1,5-naphthyridin-2-yl)benzyl)-3,6,13-trioxo-5-(1,1,1-trifluoro-2-methylpropan-2-yl)-2-oxa-4,7,11,12-tetraazahexadecan-14-yl)carbamate], for which the concentration for a half-maximal effect (EC50) in data set [1] (setting [3]) was 4.36 nM. The “Human Pred Cl.” value in data set [2] (human, microsomes) was less than 0.11 L/H/kg. Also, the “Rat. Pred. Cl.” value in data set [2] (rat, microsomes) is given as 0.19 L/H/kg.
On to `COC(=O)N[C@H](C(=O)N[C@@H](Cc1ccc(-c2cnc(N3CC4CCC(C3)N4C3COC3)nc2)cc1)[C@@H](O)CN(Cc1c(F)cc(-c2ncccn2)cc1F)NC(=O)[C@@H](NC(=O)OC)C(C)(C)C(F)(F)F)C(C)(C)C(F)(F)F` [Example 201, Methyl ((5S,8S,9S,14S)-11-(2,6-difluoro-4-(pyrimidin-2-yl)benzyl)-16,16,16-trifluoro-9-hydroxy-15,15-dimethyl-8-(4-(2-(8-(oxetan-3-yl)-3,8-diazabicyclo [3.2.1]octan-3-yl)pyrimidin-5-yl)benzyl)-3,6,13-trioxo-5-(1,1,1-trifluoro-2-methylpropan-2-yl)-2-oxa-4,7,11,12-tetraazahexadecan-14-yl)carbamate], for which the concentration for a half-maximal effect (EC50) in data set [1] (setting [3]) was 2.67 nM. In data set [2] (human, microsomes), the “Human Pred Cl.” value came out at 0.27 L/H/kg. For the same compound, the “Rat. Pred. Cl.” value in data set [2] (rat, microsomes) was determined as 0.49 L/H/kg.
For the compound `COC(=O)N[C@H](C(=O)N[C@@H](Cc1ccc(-c2ccc(N3CC4CCC(C3)N4C3COC3)nc2)cc1)[C@@H](O)CN(Cc1c(F)cc(-c2ccc(N3CC4CCC(C3)N4C3COC3)nc2)cc1F)NC(=O)[C@@H](NC(=O)OC)C(C)(C)C(F)(F)F)C(C)(C)C(F)(F)F` [Example 203, Methyl ((5S,8S,9S,14S)-11-(2,6-difluoro-4-(6-(8-(oxetan-3-yl)-3,8-diazabicyclo [3.2.1]octan-3-yl)pyridin-3-yl)benzyl)-16,16,16-trifluoro-9-hydroxy-15,15-dimethyl-8-(4-(6-(8-(oxetan-3-yl)-3,8-diazabicyclo[3.2.1]octan-3-yl)pyridin-3-yl)benzyl)-3,6,13-trioxo-5-(1,1,1-trifluoro-2-methylpropan-2-yl)-2-oxa-4,7,11,12-tetraazahexadecan-14-yl)carbamate], the 50% effective concentration (EC50) in data set [1] (setting [3]) is 5.02 nM. Further, in data set [2] (human, microsomes), the “Human Pred Cl.” value amounted to 0.32 L/H/kg. The “Rat. Pred. Cl.” value in data set [2] (rat, microsomes) is listed as 1.09 L/H/kg.
In the same order, the values of `COC(=O)N[C@H](C(=O)N[C@@H](Cc1ccc(-c2ccc(N3CC4CCC(C3)N4C3COC3)nc2)cc1)[C@@H](O)CN(Cc1c(F)cc(-c2ccn(C3CC3)n2)cc1F)NC(=O)[C@@H](NC(=O)OC)C(C)(C)C(F)(F)F)C(C)(C)C(F)(F)F` [Example 204, Methyl ((5S,8S,9S,14S)-11-(4-(1-cyclopropyl-1H-pyrazol-3-yl)-2,6-difluorobenzyl)-16,16,16-trifluoro-9-hydroxy-15,15-dimethyl-8-(4-(6-(8-(oxetan-3-yl)-3,8-diazabicyclo[3.2.1]octan-3-yl)pyridin-3-yl)benzyl)-3,6,13-trioxo-5-(1,1,1-trifluoro-2-methylpropan-2-yl)-2-oxa-4,7,11,12-tetraazahexadecan-14-yl)carbamate] are 3.18 nM, 0.19 L/H/kg and 0.48 L/H/kg.
As for `COC(=O)N[C@H](C(=O)N[C@@H](Cc1ccc(-c2ccc(N3CC4CCC(C3)N4C3COC3)nc2)cc1)[C@@H](O)CN(Cc1c(F)cc(-c2ccn(C)n2)cc1F)NC(=O)[C@@H](NC(=O)OC)C(C)(C)C)C(C)(C)C` [Example 206, Methyl ((5S,8S,9S,14S)-5-(tert-butyl)-11-(2,6-difluoro-4-(1-methyl-1H-pyrazol-3-yl)benzyl)-9-hydroxy-15,15-dimethyl-8-(4-(6-(8-(oxetan-3-yl)-3,8-diazabicyclo [3.2.1]octan-3-yl)pyridin-3-yl)benzyl)-3,6,13-trioxo-2-oxa-4,7,11,12-tetraazahexadecan-14-yl)carbamate], the EC50 in data set [1] (setting [3]) was 3.7 nM. In addition, the “Human Pred Cl.” value in data set [2] (human, microsomes) was found to be 0.41 L/H/kg. In addition, the “Rat. Pred. Cl.” value in data set [2] (rat, microsomes) worked out at 1.03 L/H/kg.
For the compound `COC(=O)N[C@H](C(=O)N[C@@H](Cc1ccc(-c2ccc(N3CC4CCC(C3)N4C3COC3)nc2)cc1)[C@@H](O)CN(Cc1c(F)cc(-c2ccn(C)n2)cc1F)NC(=O)[C@@H](NC(=O)OC)C(C)(C)C(F)(F)F)C(C)(C)C(F)(F)F` [Example 207, Methyl ((5S,8S,9S,14S)-11-(2,6-difluoro-4-(1-methyl-1H-pyrazol-3-yl)benzyl)-16,16,16-trifluoro-9-hydroxy-15,15-dimethyl-8-(4-(6-(8-(oxetan-3-yl)-3,8-diazabicyclo[3.2.1]octan-3-yl)pyridin-3-yl)benzyl)-3,6,13-trioxo-5-(1,1,1-trifluoro-2-methylpropan-2-yl)-2-oxa-4,7,11,12-tetraazahexadecan-14-yl)carbamate], the concentration giving a half-maximal response (EC50) in data set [1] (setting [3]) stood at 2.46 nM. Also, the “Human Pred Cl.” value in data set [2] (human, microsomes) came out at 0.25 L/H/kg. The “Rat. Pred. Cl.” value in data set [2] (rat, microsomes) turned out to be 0.92 L/H/kg.
As to `COC(=O)N[C@H](C(=O)N[C@@H](Cc1ccc(-c2cnn(C(F)F)c2)cc1)[C@@H](O)CN(Cc1c(F)cc(-c2ccn(C(F)F)n2)cc1F)NC(=O)[C@@H](NC(=O)OC)C(C)(C)C(F)(F)F)C(C)(C)C(F)(F)F` [Example 209, Methyl ((5S,8S,9S,14S)-11-(4-(1-(difluoromethyl)-1H-pyrazol-3-yl)-2,6-difluorobenzyl)-8-(4-(1-(difluoromethyl)-1H-pyrazol-4-yl)benzyl)-16,16,16-trifluoro-9-hydroxy-15,15-dimethyl-3,6,13-trioxo-5-(1,1,1-trifluoro-2-methylpropan-2-yl)-2-oxa-4,7,11,12-tetraazahexadecan-14-yl)carbamate], the half-maximal effective concentration (EC50) in data set [1] was 3.19 nM. The “Human Pred Cl.” value in data set [2] (setting [4]) is recorded as 1.12 L/H/kg. For the same compound, the “Rat. Pred. Cl.” value in data set [2] (setting [5]) worked out at 1.21 L/H/kg.
`CC(C)([C@H](NC(=O)OC1CC1)C(=O)N[C@@H](Cc1ccc(-c2cnn(C(F)F)c2)cc1)[C@@H](O)CN(Cc1c(F)cc(-c2cnn(C(F)F)c2)cc1F)NC(=O)[C@@H](NC(=O)OC1CC1)C(C)(C)C(F)(F)F)C(F)(F)F` [Example 210, Cyclopropyl ((S)-1-(2-((2S,3S)-3-((S)-2-((cyclopropoxycarbonyl)amino)-4,4,4-trifluoro-3,3-dimethylbutanamido)-4-(4-(1-(difluoromethyl)-1H-pyrazol-4-yl)phenyl)-2-hydroxybutyl)-2-(4-(1-(difluoromethyl)-1H-pyrazol-4-yl)-2,6-difluorobenzyl)hydrazinyl)-4,4,4-trifluoro-3,3-dimethyl-1-oxobutan-2-yl)carbamate]: the EC50 in data set [1] (setting [3]) came out at 15 nM. Also, the “Human Pred Cl.” value in data set [2] (setting [4]) amounted to 0.18 L/H/kg. Moreover, the “Rat. Pred. Cl.” value in data set [2] (setting [5]) is on record as less than 0.18 L/H/kg.
As to `COC(=O)N[C@H](C(=O)N[C@@H](Cc1ccc(-c2ccn(CC(F)F)n2)cc1)[C@@H](O)CN(Cc1c(F)cc(-c2cnc(N3CC4CCC(C3)N4C3COC3)nc2)cc1F)NC(=O)[C@@H](NC(=O)OC)C(C)(C)C(F)(F)F)C(C)(C)C(F)(F)F` [Example 212, Methyl ((5S,8S,9S,14S)-11-(2,6-difluoro-4-(2-(8-(oxetan-3-yl)-3,8-diazabicyclo[3.2.1]octan-3-yl)pyrimidin-5-yl)benzyl)-8-(4-(1-(2,2-difluoroethyl)-1H-pyrazol-3-yl)benzyl)-16,16,16-trifluoro-9-hydroxy-15,15-dimethyl-3,6,13-trioxo-5-(1,1,1-trifluoro-2-methylpropan-2-yl)-2-oxa-4,7,11,12-tetraazahexadecan-14-yl)carbamate], the EC50 in data set [1] (setting [3]) amounted to 4.97 nM. In addition, the “Human Pred Cl.” value in data set [2] (human, microsomes) was 0.33 L/H/kg. Further, the “Rat. Pred. Cl.” value in data set [2] (rat, microsomes) was 0.33 L/H/kg.
Regarding `CC(C)([C@H](NC(=O)C1CC1)C(=O)N[C@@H](Cc1ccc(-c2cnn(C(F)F)c2)cc1)[C@@H](O)CN(Cc1c(F)cc(-c2cnn(C(F)F)c2)cc1F)NC(=O)[C@@H](NC(=O)C1CC1)C(C)(C)C(F)(F)F)C(F)(F)F` [Example 214, N—((S)-1-(2-((2S,3S)-3-((S)-2-(cyclopropanecarboxamido)-4,4,4-trifluoro-3,3-dimethylbutanamido)-4-(4-(1-(difluoromethyl)-1H-pyrazol-4-yl)phenyl)-2-hydroxybutyl)-2-(4-(1-(difluoromethyl)-1H-pyrazol-4-yl)-2,6-difluorobenzyl)hydrazinyl)-4,4,4-trifluoro-3,3-dimethyl-1-oxobutan-2-yl)cyclopropanecarboxamide], the EC50 in data set [1] (setting [3]) stood at 12.3 nM. For the same compound, the “Human Pred Cl.” value in data set [2] (setting [4]) is on record as less than 0.11 L/H/kg. In addition, the “Rat. Pred. Cl.” value in data set [2] (setting [5]) is less than 0.18 L/H/kg.
